Data set [1] concerns MC3T3-E1 cells. In words: Alkaline phosphatase (ALP) assay, differentiation of MC3T3-E1 cells. It is filed as cell-based. As to conditions: 4 days. The protocol:
In experiments, 10,000 cells/well are cultured with alpha-MEM medium (including 10% FBS and 1× antibiotic-antimycotic solution) for 4 days at 37° C. in 5% CO2 incubator. After adding different concentrations of methoxy flavones or hydroxy flavones to react for 4 days, the cultured medium is removed and 100 μl 4% formaldehyde is added to fix cells for 10 minutes. After washing cells, 30 μl p-nitrophenyl phosphate (pNPP) solution is added to react for 30 minutes at 37° C., and then 30 μl 0.5 N NaOH is added to stop the reaction. Finally, OD value is measured at […] using ELISA reader.
In an embodiment, different concentrations of 6-methoxy flavone and 7-methoxy flavone are respectively added into MC3T3-E1 cells (a kind of preosteoblast cells) in alpha-MEM medium (containing 10% FBS, 1× antibiotic-antimycotic solution, 10 mM β-glycerophsphate, 50 μg/ml VitC, 10^−7 M dexamethasone) for 4 days to induce cell osteogenic differentiation and maturation. Because differentiated MC3T3-E1 cells will express the ALP activity, ALP activity assay is used to know the extent of cell differentiation. FIGS. 5(A) and 5(B) illustrate ALP activities at four different concentrations (1.25 μM, 2.5 μM, 5 μM, 10 μM) of 6-methoxy flavone and 7-methoxy flavone, respectively, in comparison with controls (with only PBS, or without 6-methoxy flavone or 7-methoxy flavone but with equal volume of vehicle, DMSO).
In still another embodiment, different concentrations (0.4 μM, 2 μM, 10 μM, 50 μM) of flavone, 7-methoxy flavone and 6-hydroxy flavone are respectively added into MC3T3-E1 cells in alpha-MEM medium with 10% FBS, 1× antibiotic-antimycotic solution, 10 mM β-glycerophsphate, 50 μg/ml Vitamin C, and 10^−7 M dexamethasone for 4 day incubation to induce cell differentiation and maturation. FIGS. 7(A)-7(C) illustrate ALP activities of MC3T3-E1 cells after exposed to four different concentrations of flavone, 7-methoxy flavone and 6-hydroxy flavone, respectively, in comparison with control (without flavone, 7-methoxy flavone or 6-hydroxy flavone, but with vehicle DMSO).

For data set [2], the system named is MBMMφ cells. The data set can be described thus: TRAP activity assay, differentiation of MBMMφ cells induced with RANKL and M-CSF. As to conditions: for IC50: Mus musculus, 2 days with compound, then 20 ng/ml RANKL and 10 ng/ml M-CSF for 5 days, read-out: IC50, s-TRAP activity (inhibition of differentiation of MBMMφ cells). The format is cell-based, mouse. How it is done: In some embodiments of the present invention, preosteoclast cells used are obtained from bone marrow in hind leg bone of C57BL/6J Narl mice, called as MBMMφ cells (mouse bone marrow macrophages), and are cultured in alpha-MEM medium (including 10% FBS and 1× antibiotic-antimycotic solution) and then added with M-CSF (macrophage colony-stimulating factor) and RANKL (receptor for activation of nuclear factor kappa B ligand) for inducing cell differentiation and maturation.
(§1) The cultured medium for cells derived from MBMMφ differentiation is removed, and cells are added with new medium. After incubation for 1 hour, and the activity of secretory type acid phosphatase in the medium is measured. First, 30 μl medium to be measured is taken out and added with […] TRAP assay reagent (0.1 M acetate buffer, 60 mM sodium tartrate and 5 mg/ml pNPP) followed by incubating for 30 minutes at 37° C., then adding 60 μl 0.5N NaOH solution to terminate the reaction and OD value at 405 nm of each specimen being measured.
In an embodiment, different concentrations of flavone (chemical structure as shown in FIG. 2(A)), 6-methoxy flavone (FIG. 2(B)), 7-methoxy flavone (FIG. 2(C)), 6-hydroxy flavone (FIG. 2(D)) and 7-hydroxy flavone (FIG. 2(E)) are respectively added into the cultured medium of MBMMφ cells, which had been cultured in 10 ng/ml M-SCF without treating with flavone components for 5 days, for 2 days. Next, after adding 20 ng/ml RANKL and 10 ng/ml M-CSF to induce cell differentiation for another 5 days, TRAP activity assay is performed.

A further data set concerns SaOS-2 cells. The data set can be described thus: Calcium staining for calcium deposition (CaP assay) of SaOS-2 cells. It is filed as cell-based, human. As to conditions: 10 μM, 7 day; data not shown.
The test system of data set [3] is MC3T3-E1 cells. In words: MTT assay, MC3T3-E1 cell growth. The settings on record: 1 day. An excerpt:
In an embodiment, different concentrations of flavone, 6-methoxy flavone, 7-methoxy flavone, 6-hydroxy flavone and 7-hydroxy flavone are respectively added into 3,000 MC3T3-E1 cells per well in the cultured medium for 1 day.
In general terms: Tetrazolium dyes change colour on reduction, which living cells bring about.

Data set [4] relates to human mesenchymal stem cells (hMSCs). The data set can be described thus: Calcein fluorescent test for calcium precipitation, osteogenesis of human mesenchymal stem cells. It is filed as cell-based. The settings on record: FIG. 10, calcein fluorescent test. An excerpt: FIGS. 10(A)-10(D) respectively illustrate the effects of 6-methoxy flavone, 7-methoxyl flavone, 7-hydroxy flavone, and 6-hydroxy flavone on the osteogenesis of human mesenchymal stem cells, based on calcein fluorescent test for calcium precipitation.
Moreover, the present invention also measures the effects of methoxy flavones and hydroxyl flavones on human mesenchymal stem cells (hMSCs).

Data set [5] deals with MBMMφ cells. In words: MTT assay, MBMMφ cell growth.
Description: (§2) In an embodiment, different concentrations (0 μM, 1 μM, 5 μM, 10 μM, 15 μM, 20 μM, and 25 μM) of 7-methoxy flavone are respectively added into 3,000 MBMMφ cells/well in the cultured medium containing M-CSF for 1 day incubation. Next, MTT reagent is used to detect the OD value of cells so as to determine the growth situation of MBMMφ cells.
Data set [6] deals with RAW 264.7 cells. In words: TRAP activity assay, differentiation of RAW 264.7 cells. It is filed as cell-based, mouse. The settings on record: at 8 μM, 16 μM, and 32 μM; compared to control. How it is done: as §1
In another embodiment, different concentrations of 7-methoxy flavone are respectively added into the cultured medium of RAW 264.7 cells (mouse leukaemic monocyte macrophages, another kind of preosteoclast cells) for 2 days. Next, after adding 20 ng/ml
RANKL and 10 ng/ml M-CSF to induce RAW 264.7 cell differentiation for 3 days, TRAP activity assay is then performed.

Data set [7] has as its system RAW 264.7 cells. The data set can be described thus: Toxicity to RAW 264.7 cells. The format is cell-based, mouse. The settings on record: data not shown.
Data set [8] concerns MC3T3-E1 cells. The data set can be described thus: Alizarin Red S stain, calcium deposition of MC3T3-E1 cells. As to conditions: at 5 μM, 10 μM, 20 μM and 40 μM; 20 days. The format is cell-based. The protocol:
In an embodiment, different concentrations (2.5 μM, 5 μM, 10 μM, 20 μM and 40 μM) of 7-methoxy flavone are respectively added into the cultured medium of MC3T3-E1 cell incubated for 20 days, wherein the cultured medium with 7-methoxy flavone is changed every 4 days. Next, Alizarin Red S stain is used to observe the calcification situation of MC3T3-E1 cells, and OD value at 562 nm is measured for quantitative analysis.

Data set [9] concerns MBMMφ cells.
Description: as §2
Where [10] appears, read: at the concentration of equal to or larger than 10 μM.
The mark [11] stands for this setting: at the concentration of equal to or larger than 5 μM.

Where two headings read alike, the source gives them in different places.

Usually IC50 stands for the concentration needed to halve the response being measured.

Consider `O=c1cc(-c2ccccc2)oc2ccc(O)cc12` [6-hydroxy flavone], for which the “effect on differentiation of MC3T3-E1 cells (ALP activity)” value with MC3T3-E1 cells [1] (at 4 μM and 16 μM, FIG. 6) was “significantly stimulate the differentiation of MC3T3-E1 cells”; with MC3T3-E1 cells [1] (at 10 μM and 50 μM, FIG. 7), “obviously stimulate the differentiation of MC3T3-E1 cells”. In addition, the IC50 in the data set with MBMMφ cells [2] came out at 7.3 ± 0.2 µM. In addition, the “effect on differentiation of MBMMφ cells (s-TRAP activity)” value (“effect on differentiation of MBMMφ cells” below) in the data set with MBMMφ cells [2] (setting [10]) is on record as “significantly inhibit the differentiation of MBMMφ cells”. The “calcium deposition of SaOS-2 cells” value in the data set on SaOS-2 cells is listed as “significantly enhance calcium deposition of SaOS-2 cells”. Moreover, the “growth of MC3T3-E1 cells (MTT, cytotoxicity)” value (from here on “growth of MC3T3-E1 cells”) in the data set on MC3T3-E1 cells [3] (mouse) was “do not affect the growth of MC3T3-E1 cells”. Moreover, the “calcium deposition of hMSCs” value in data set [4] was “does not inhibit calcium deposition even at high concentration”. Besides, the “growth of MBMMφ cells (MTT, cytotoxicity)” value (shortened to “growth of MBMMφ cells”) in the data set on MBMMφ cells [5] (not shown) is recorded as “do not influence the growth of MBMMφ cells”.

As for `COc1ccc2c(=O)cc(-c3ccccc3)oc2c1` [7-methoxy flavone], in the data set with RAW 264.7 cells [6], the “effect on differentiation of RAW 264.7 cells (TRAP activity)” value is “significantly inhibit the differentiation of RAW 264.7 cells”. The “effect on differentiation of MC3T3-E1 cells (ALP activity)” value in the data set on MC3T3-E1 cells [1] (at 4 μM and 16 μM, FIG. 6) was “significantly stimulate the differentiation of MC3T3-E1 cells”; with MC3T3-E1 cells [1] (at 5 μM and 10 μM, FIG. 5), “efficiently enhance the differentiation of MC3T3-E1 cells”; in the data set on MC3T3-E1 cells [1] (at 10 μM and 50 μM, FIG. 7), “obviously stimulate the differentiation of MC3T3-E1 cells”. For the same compound, the “toxicity to RAW 264.7 cells” value in the data set with RAW 264.7 cells [7] is reported as “no toxicity to RAW 264.7 cells”. Besides, in the data set with MBMMφ cells [2], the IC50 was 7.1 ± 0.6 µM. Moreover, in the data set with MBMMφ cells [2] (setting [11]), the “effect on differentiation of MBMMφ cells” value is on record as “manifestly inhibit the differentiation of MBMMφ cells”. The “calcium deposition of SaOS-2 cells” value in the data set on SaOS-2 cells is “significantly enhance calcium deposition of SaOS-2 cells”. Further, the “growth of MC3T3-E1 cells” value in the data set with MC3T3-E1 cells [3] (mouse) is reported as “do not affect the growth of MC3T3-E1 cells”. For the same compound, the “calcium deposition of hMSCs” value in data set [4] was “inhibit calcium deposition on hMSCs only at high concentration”. The “growth of MBMMφ cells” value in the data set with MBMMφ cells [5] (0-25 μM, 1 day incubation, medium containing M-CSF) was “does not affect the growth of MBMMφ cells”. Besides, the “calcium deposition of MC3T3-E1 cells (Alizarin Red S, OD 562 nm)” value in the data set on MC3T3-E1 cells [8] was “effectively enhance calcium deposition of MC3T3-E1 cells”.

With `O=c1cc(-c2ccccc2)oc2cc(O)ccc12` [7-hydroxy flavone], the “effect on differentiation of MC3T3-E1 cells (ALP activity)” value in the data set on MC3T3-E1 cells [1] (at 16 μM, FIG. 6) is recorded as “enhance effectively the cell differentiation”. Moreover, the IC50 with MBMMφ cells [2] stood at 10.9 ± 1.3 µM. Also, the “effect on differentiation of MBMMφ cells” value in the data set with MBMMφ cells [2] (setting [10]) is “significantly inhibit the differentiation of MBMMφ cells”. For the same compound, the “calcium deposition of SaOS-2 cells” value in the data set with SaOS-2 cells is listed as “significantly enhance calcium deposition of SaOS-2 cells”. Moreover, in the data set on MC3T3-E1 cells [3] (different concentrations, FIG. 8), the “growth of MC3T3-E1 cells” value was “do not affect the growth of MC3T3-E1 cells”. The “calcium deposition of hMSCs” value in data set [4] is listed as “inhibit calcium deposition on hMSCs only at high concentration”. Besides, the “growth of MBMMφ cells” value in the data set on MBMMφ cells [5] (not shown) was “do not influence the growth of MBMMφ cells”.

Take `O=c1cc(-c2ccccc2)oc2ccccc12` [flavone, reference compound]: the “effect on differentiation of MC3T3-E1 cells (ALP activity)” value in the data set with MC3T3-E1 cells [1] (0.25 μM, 1 μM, 4 μM, 16 μM, FIG. 6) is given as “does not stimulate the differentiation of MC3T3-E1 cells”; in the data set on MC3T3-E1 cells [1] (0.4 μM, 2 μM, 10 μM, 50 μM, FIG. 7), “does not significantly stimulate the differentiation of MC3T3-E1 cells”. The “growth of MBMMφ cells” value with MBMMφ cells [9] is on record as “do not influence the growth of MBMMφ cells”. Besides, the “effect on differentiation of MBMMφ cells” value in the data set on MBMMφ cells [2] (1 μM, 5 μM, 10 μM, 20 μM, in comparison with control) is “does not have obvious effect”. Moreover, in the data set with MBMMφ cells [2], the IC50 is > 20 µM. The “growth of MC3T3-E1 cells” value in the data set with MC3T3-E1 cells [3] (mouse) was “do not affect the growth of MC3T3-E1 cells”.

Regarding `COc1ccc2oc(-c3ccccc3)cc(=O)c2c1` [6-methoxy flavone], the “effect on differentiation of MC3T3-E1 cells (ALP activity)” value in the data set with MC3T3-E1 cells [1] (at 5 μM and 10 μM, FIG. 5) is on record as “efficiently enhance the differentiation of MC3T3-E1 cells”. Moreover, the IC50 with MBMMφ cells [2] was 5.4 ± 0.2 µM. In the data set with MBMMφ cells [2] (setting [11]), the “effect on differentiation of MBMMφ cells” value is listed as “manifestly inhibit the differentiation of MBMMφ cells”. In the data set with MC3T3-E1 cells [3] (mouse), the “growth of MC3T3-E1 cells” value is “do not affect the growth of MC3T3-E1 cells”. The “calcium deposition of hMSCs” value in [4] is recorded as “greatly inhibits calcium deposition of hMSCs”. Moreover, the “growth of MBMMφ cells” value with MBMMφ cells [5] (not shown) is “do not influence the growth of MBMMφ cells”.

(Values after US20130030045A1, “METHOD OF PREVENTING AND TREATING OSTEOPOROSIS” (priority 2011, published 2013).)
